Laboratory results reported in US10576097B2, “URLC10-derived peptide and vaccine containing same” (ONCOTHERAPY SCIENCE, INC., priority 2014, dated 2020).

Legend:
Format in all cases: cell-based, human
peptide-pulsed C1R-A11 = assay: In vitro CTL induction, IFN-gamma ELISPOT assay (HLA-A*1101); conditions: CTLs induced from HLA-A*1101-positive donors, against peptide-pulsed C1R-A11, compared with control
Source text: (§1) Monocyte-derived dendritic cells (DCs) were used as the antigen-presenting cell to induce a cytotoxic T lymphocyte (CTL) response against peptides presented on human leukocyte antigens (HLAs). As described in the other sections, DCs were generated in vitro (Nakahara S et al., Cancer Res 2003, 63(14): 4112-8). Specifically, peripheral-blood mononuclear cells isolated from healthy volunteers (HLA-A*1101-positive) with the Ficoll-Paque plus solution (Pharmacia) were separated by attaching to plastic tissue culture dishes (Becton Dickinson) and concentrated as a monocyte fraction. The monocyte-concentrated population was cultured in the presence of 1000 IU/ml granulocyte macrophage colony-stimulating factor (R&D System) and 1000 IU/ml interleukin(IL)-4 (R&D System) in an AIM-V medium (Invitrogen) containing 2% heat-inactivated autologous serum (AS). After seven days of culturing, the cytokine-induced DCs were pulsed with 20 micro-g/ml each of the synthesized peptides in an AIM-V medium at 37 degrees C. for three hours in the presence of 3 micro-g/ml beta 2-microglobulin. The generated cells appeared to express on their cell surface DC-associated molecules such as CD80, CD83, CD86 and HLA class II (data not shown). Next, these peptide-pulsed DCs were inactivated by X-ray irradiation (20 Gy), and mixed in a 1:20 ratio with autologous CD8^+ T cells obtained by positive selection using the CD8 Positive Isolation Kit (Dynal). These culture products were seeded in a 48-well plate (Corning). Each well was made to contain 1.5×10^4 peptide-pulsed DCs, 3×10^5 CD8^+ T cells and 10 ng/ml IL-7 (R&D System) in 0.5 ml of the AIM-V/2% AS medium. Three days later, these culture products were added with a final concentration of 20 IU/ml IL-2 (CHIRON). On day 7 and day 14, T cells were further stimulated with peptide-pulsed autologous DCs. The DCs were prepared every time by the same method as above. On day 21, after the third peptide stimulation, CTLs were examined against the peptide-pulsed C1R-A11 by a human interferon (IFN)-gamma enzyme-linked immunospot (ELISPOT) assay (Tanaka H et al., Br J Cancer 2001, 84(1): 94-9; Umano Y et al., Br J Cancer 2001, 84(8): 1052-7; Uchida N et al., Clin Cancer Res 2004, 10(24): 8577-86; Suda T et al., Cancer Sci 2006, 97(5): 411-9; Watanabe T et al., Cancer Sci 2005, 96(8): 498-506).
(§2) To examine specific CTL activity, an IFN-gamma ELISPOT assay and an IFN-gamma enzyme-linked immunosorbent assay (ELISA) were performed. Specifically, peptide-pulsed C1R-A11 (1×10^4 cells/well) was prepared as the stimulator cell. The induced CTLs, i.e., CTL lines and CTL clones, were used as the responder cell. The IFN-gamma ELISPOT assay and IFN-gamma ELISA were performed according to the manufacturer's manual.

peptide-pulsed C1R-A03 = assay: In vitro CTL induction, IFN-gamma ELISPOT assay (HLA-A*0301); conditions: CTLs induced from HLA-A*0301-positive donors, against peptide-pulsed C1R-A03, compared with control
Source text: as §1, with “(HLA-A*0301-positive)” for “(HLA-A*1101-positive)”, “C1R-A03” for “C1R-A11”
as §2, with “C1R-A03” for “C1R-A11”

[1] = system: C1R-A03 cells pulsed with the respective peptide; assay: IFN-gamma ELISA of CTL lines and CTL clones (HLA-A*0301)
Method: CTLs were propagated in culture using methods similar to those disclosed by Riddell et al. (Walter E A et al., N Engl J Med 1995, 333(16): 1038-44; Riddell S R et al., Nat Med 1996, 2(2): 216-23). The CTLs were co-cultured in a total of 25 ml AIM-V medium containing 5% AS (AIM-V/5% AS) and 40 ng/ml anti-CD3 antibody with two types of Mitomycin C-treated human B lymphoblastoid cell lines at 5×10^6 cells/flask. One day after beginning of the culturing, 120 IU/ml IL-2 was added to the culture. On days 5, 8 and 11, a fresh AIM-V/5% AS medium containing 30 IU/ml IL-2 was added to the culture (Tanaka H et al., Br J Cancer 2001, 84(1): 94-9; Umano Y et al., Br J Cancer 2001, 84(8): 1052-7; Uchida N et al., Clin Cancer Res 2004, 10(24): 8577-86; Suda T et al., Cancer Sci 2006, 97(5): 411-9; Watanabe T et al., Cancer Sci 2005, 96(8): 498-506).
Dilution of CTLs was carried out to make 1 and 10 cells/well in 96 round-bottomed microtiter plates (Nalge Nunc International). The CTLs were co-cultured with two types of Mitomycin C-treated human B lymphoblastoid cell lines at 1×10^4 cells/well in a total of 150 micro-l/well 5% AS-containing AIM-V (AIM-V/5% AS) medium with 30 ng/ml anti-CD3 antibody and 125 IU/ml IL-2. Ten days later, IL-2 was added to the medium at 50 micro-l/well to reach a final concentration of 125 IU/ml. On day 14, the CTL activity was tested, and the CTL clones were propagated using the same method as described above (Uchida N et al., Clin Cancer Res 2004, 10(24): 8577-86; Suda T et al., Cancer Sci 2006, 97(5): 411-9; Watanabe T et al., Cancer Sci 2005, 96(8): 498-506).
as §2, with “C1R-A03” for “C1R-A11”

Sequence | peptide-specific CTL activity (IFN-gamma production) (peptide-pulsed C1R-A03) | also measured
ALLLVVALPR (a peptide derived from URLC10) [SEQ ID NO 12, URLC10-derived 10mer peptide, start position 63] | potent IFN-gamma production | peptide-specific CTL activity (IFN-gamma production) (peptide-pulsed C1R-A11): specific IFN-gamma production was not observed
AMERPKPEEK (a peptide derived from URLC10) [SEQ ID NO 16, URLC10-derived 10mer peptide, start position 149] | potent IFN-gamma production | –
CSAGCAAMER (a peptide derived from URLC10) [SEQ ID NO 15, URLC10-derived 10mer peptide, start position 143] | potent IFN-gamma production | –
GLWLAILLLL (a peptide derived from URLC10) [SEQ ID NO 27, URLC10-derived 10mer peptide, start position 204] | potent IFN-gamma production | –
GPPINSSVFK (a peptide derived from URLC10) [SEQ ID NO 17, URLC10-derived 10mer peptide, start position 183] | potent IFN-gamma production | –
IAAVKIFPR (a peptide derived from URLC10) [SEQ ID NO 3, URLC10-derived 9mer peptide, start position 127] | potent IFN-gamma production | –
ILLLLASIAA (a peptide derived from URLC10) [SEQ ID NO 30, URLC10-derived 10mer peptide, start position 209] | potent IFN-gamma production | –
KIFPRFFMV (a peptide derived from URLC10) [SEQ ID NO 6, URLC10-derived 9mer peptide, start position 131] | potent IFN-gamma production | –
LLEEPMPFFY (a peptide derived from URLC10) [SEQ ID NO 18, URLC10-derived 10mer peptide, start position 161] | potent IFN-gamma production | –
LLLVVALPR (a peptide derived from URLC10) [SEQ ID NO 5, URLC10-derived 9mer peptide, start position 64] | potent IFN-gamma production | –
MPFFYLKCCK (a peptide derived from URLC10) [SEQ ID NO 22, URLC10-derived 10mer peptide, start position 166] | potent IFN-gamma production | IFN-gamma production of CTL clone ([1]; CTL clone by limiting dilution, against peptide-pulsed C1R-A03 cells): Potent IFN-gamma production; IFN-gamma production of CTL line ([1]; CTL line against peptide-pulsed versus non-pulsed target cells): potent IFN-gamma production
RGGRGSPYR (a peptide derived from URLC10) [SEQ ID NO 9, URLC10-derived 9mer peptide, start position 18] | – | peptide-specific CTL activity (IFN-gamma production) (peptide-pulsed C1R-A11): potent IFN-gamma production
RQAPAGGRR (a peptide derived from URLC10) [SEQ ID NO 8, URLC10-derived 9mer peptide, start position 7] | specific IFN-gamma production was not observed | –
RVWCHVCER (a peptide derived from URLC10) [SEQ ID NO 1, URLC10-derived 9mer peptide, start position 98] | potent IFN-gamma production | peptide-specific CTL activity (IFN-gamma production) (peptide-pulsed C1R-A11): potent IFN-gamma production
VIAAVKIFPR (a peptide derived from URLC10) [SEQ ID NO 14, URLC10-derived 10mer peptide, start position 126] | potent IFN-gamma production | –
